# Values of other authors in US20100028912A1, “IMAGING USING RADIOACTIVE MONOCATIONS IN COMBINATION WITH A RECEPTOR BINDING LIGAND THAT STIMULATES THE INFLUX OF CATIONS” (BRACCO IMAGING S.P.A., priority 2006, published 2010).
# Legend:
# Na+-K+ pump = conditions: guinea pig pancreatic acinar cells in vitro
# [1] = test system: guinea pig tracheal smooth muscle cells; conditions: cultured guinea pig tracheal smooth muscle cells
# [2] = test system: quiescent Swiss 3T3 cells; conditions: cells treated with Na+/K+ ATPase pump inhibitor
# [3] = test system: alpha(1)-adrenoceptors (AR); conditions: 30 μM; isolated perfused rat hearts and isolated cardiomyocytes
# [4] = test system: rat vascular smooth muscle cells; conditions: rat vascular smooth muscle cells in culture
# [5] = test system: Na+-K+-2Cl- cotransporter (NKCC); conditions: acute cell exposure; rat L6 skeletal muscle cells
molecule,measurement,setting,value
"CSCC[C@H](NC(=O)[C@H](Cc1ccc(OS(=O)(=O)O)cc1)NC(=O)[C@@H](N)CC(=O)O)C(=O)NCC(=O)N[C@@H](Cc1c[nH]c2ccccc12)C(=O)N[C@@H](CCSC)C(=O)N[C@@H](CC(=O)O)C(=O)N[C@@H](Cc1ccccc1)C(N)=O [CCK-8, cholecystokinin octapeptide]",stimulation of ouabain-sensitive 86Rb+ uptake,Na+-K+ pump,approximately 60%
C[N+](C)(C)CCOC(N)=O [Carbachol],stimulation of ouabain-sensitive 86Rb+ uptake,Na+-K+ pump,approximately 60%
"NCCc1c[nH]c2ccc(O)cc12 [Serotonin, 5-hydroxytryptamine]",uptake of 86Rb+,[1],increases
CCCC(=O)Nc1ncnc2c1ncn2[C@@H]1O[C@@H]2COP(=O)(O)O[C@H]2[C@H]1OC(=O)CCC [dibutyryl cAMP],increase of Na+-K+ pump activity (as measured by ouabain-sensitive 86Rb+ uptake),Na+-K+ pump,approximately 40%
C[C@@H]1O[C@@H](O[C@H]2C[C@@H](O)[C@]3(CO)[C@H]4[C@H](O)C[C@]5(C)[C@@H](C6=CC(=O)OC6)CC[C@]5(O)[C@@H]4CC[C@]3(O)C2)[C@H](O)[C@H](O)[C@H]1O [ouabain],effect on bombesin stimulation of 86Rb+ uptake,[2],virtually abolished
CNC[C@H](O)c1cccc(O)c1 [phenylephrine],86Rb+ influx into myocardial cells,[3],increased
Cn1c(=O)c2[nH]cnc2n(C)c1=O [theophylline],increase of Na+-K+ pump activity (as measured by ouabain-sensitive 86Rb+ uptake),Na+-K+ pump,approximately 40%
Platelet-derived growth factor,influx of 86Rb,[4],acute increase
Secretin,increase of Na+-K+ pump activity (as measured by ouabain-sensitive 86Rb+ uptake),Na+-K+ pump,approximately 40%
insulin,stimulation of NKCC-mediated 86Rb+ influx,[5],~1.6 fold
